# Where a SMILES comes first, the peptide text is derived from it.
# Tests used:
# [1] = molecular target: HLA-A*0201 (Homo sapiens, UniProt P04439, D140Y/D185E/D98H/E176V/E277Q/G131W/G231S/I119V/I121R/I166T/I218V/L300P/L318F/N151K/N90K/P208A/P217A/Q86G/Q94H/R138H/R169H/T345S); experiment: HLA-A*0201-peptide binding
# [2] = test system: splenocytes of ML1419c p113-121 immunized HLA-A2tg mice; format: cell-based
Compound,IC50 [1],IFN-γ [2],IL-6 [2],IP-10 [2],MIG [2],MIP-β [2],TNF-α [2],VEGF [2]
"CC(C)C[C@H](NC(=O)[C@@H](NC(=O)[C@@H](NC(=O)CNC(=O)[C@H](CC(=O)O)NC(=O)[C@H](CC(C)C)NC(=O)[C@@H](N)CCCNC(=N)N)[C@@H](C)O)[C@@H](C)O)C(=O)N[C@@H](CCC(=O)O)C(=O)N[C@H](C(=O)O)C(C)C [ML1419c p113-121, RLDGTTLEV] (H-RLDGTTLEV-OH)",35 nM,–,–,–,–,–,–,–
concanavalin A [conA],–,5112 pg/mL,299 pg/mL,251 pg/mL,533 pg/mL,787 pg/mL,33 pg/mL,83 pg/mL
